Results taken from patent publication US20230141101A1, “PDE4 INHIBITOR COMPOUND AND MEDICAL USE THEREOF” (Suzhou Longbotai Pharmaceuticals Co., Ltd., priority 2020, published 2023).

What was measured:
Format in all cases: biochemical
Settings in all cases: 20 nM
[1] = target: T1, PDE4A1A (Homo sapiens, UniProt P27815); assay: PDE4 inhibitory activity assay (FAM-cAMP enzymatic reaction), PDE4A1A
T1 construct: purchased BPS 60040
Method in brief: (§1)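 Each isoform is incubated with test compound for 15 min at room temperature before FAM-cAMP substrate starts a 30-min reaction.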

[2] = target: T2, PDE4B1 (Homo sapiens, UniProt Q07343); assay: PDE4 inhibitory activity assay (FAM-cAMP enzymatic reaction), PDE4B1
T2 construct: purchased BPS 60041
Method in brief: as §1

[3] = target: PDE4D2 (Homo sapiens, UniProt Q08499); assay: PDE4 inhibitory activity assay (FAM-cAMP enzymatic reaction), PDE4D2
Method in brief: as §1

PDE4D2, sequence (Q08499 303-809): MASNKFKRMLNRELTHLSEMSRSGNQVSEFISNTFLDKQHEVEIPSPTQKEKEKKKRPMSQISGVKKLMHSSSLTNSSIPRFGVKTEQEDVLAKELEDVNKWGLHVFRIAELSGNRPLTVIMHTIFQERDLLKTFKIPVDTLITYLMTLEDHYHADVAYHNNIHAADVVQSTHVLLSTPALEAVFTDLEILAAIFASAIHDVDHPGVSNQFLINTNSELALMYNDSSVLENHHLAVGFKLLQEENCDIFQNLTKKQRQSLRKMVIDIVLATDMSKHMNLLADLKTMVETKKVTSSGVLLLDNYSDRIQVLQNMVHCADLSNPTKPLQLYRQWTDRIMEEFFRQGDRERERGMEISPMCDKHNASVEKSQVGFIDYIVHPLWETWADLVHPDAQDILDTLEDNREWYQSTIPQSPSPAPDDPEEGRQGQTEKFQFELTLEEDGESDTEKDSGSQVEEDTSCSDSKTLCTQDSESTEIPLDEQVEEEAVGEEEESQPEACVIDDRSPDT
T1 sequence (P27815 1-647 isoform P27815-4): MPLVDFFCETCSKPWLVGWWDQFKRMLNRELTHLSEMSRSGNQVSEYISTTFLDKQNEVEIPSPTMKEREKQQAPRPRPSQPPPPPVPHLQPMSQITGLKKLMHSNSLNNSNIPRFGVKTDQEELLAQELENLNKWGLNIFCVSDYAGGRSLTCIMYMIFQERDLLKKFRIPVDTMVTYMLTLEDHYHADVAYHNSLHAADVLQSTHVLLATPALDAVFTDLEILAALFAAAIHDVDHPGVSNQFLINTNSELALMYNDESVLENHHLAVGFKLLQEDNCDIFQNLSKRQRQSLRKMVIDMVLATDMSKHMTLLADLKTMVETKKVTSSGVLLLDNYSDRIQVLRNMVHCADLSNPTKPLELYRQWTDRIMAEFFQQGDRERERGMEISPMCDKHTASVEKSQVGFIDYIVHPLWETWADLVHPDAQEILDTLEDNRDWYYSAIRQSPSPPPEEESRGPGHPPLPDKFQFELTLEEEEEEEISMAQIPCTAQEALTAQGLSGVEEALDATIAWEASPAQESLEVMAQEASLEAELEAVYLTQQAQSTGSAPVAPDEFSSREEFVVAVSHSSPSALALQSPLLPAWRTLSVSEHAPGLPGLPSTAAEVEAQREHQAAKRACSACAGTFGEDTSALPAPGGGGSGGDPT
T2 sequence (Q07343 whole entry): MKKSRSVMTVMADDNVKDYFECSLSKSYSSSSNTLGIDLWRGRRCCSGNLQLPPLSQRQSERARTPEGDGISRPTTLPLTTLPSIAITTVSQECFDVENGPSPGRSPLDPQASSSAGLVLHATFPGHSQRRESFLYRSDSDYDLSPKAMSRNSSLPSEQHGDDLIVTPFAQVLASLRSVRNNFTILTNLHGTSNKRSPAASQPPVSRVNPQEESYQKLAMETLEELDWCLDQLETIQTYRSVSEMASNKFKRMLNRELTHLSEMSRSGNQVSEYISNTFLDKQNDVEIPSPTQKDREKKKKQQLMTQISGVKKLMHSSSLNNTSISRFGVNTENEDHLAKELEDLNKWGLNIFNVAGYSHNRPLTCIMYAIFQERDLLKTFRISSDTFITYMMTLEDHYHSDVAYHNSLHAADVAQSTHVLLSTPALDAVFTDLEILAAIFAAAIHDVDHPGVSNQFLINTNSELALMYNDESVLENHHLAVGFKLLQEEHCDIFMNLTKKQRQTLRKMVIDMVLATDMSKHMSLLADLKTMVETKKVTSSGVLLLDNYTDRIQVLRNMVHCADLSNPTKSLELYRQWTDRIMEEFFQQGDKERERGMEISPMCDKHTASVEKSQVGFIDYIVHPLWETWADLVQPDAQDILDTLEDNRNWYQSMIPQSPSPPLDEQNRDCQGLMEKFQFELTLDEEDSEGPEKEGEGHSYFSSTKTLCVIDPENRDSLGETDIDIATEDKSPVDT

SMILES	PDE4 A1 inhibitory effect at 20 nM [1]	PDE4 B1 inhibitory effect at 20 nM [2]	PDE4 D2 inhibitory effect at 20 nM [3]
CCOc1nc([C@@H](CS(C)(=O)=O)n2c(=O)n(C)c3cc(-c4cc(F)ccc4F)ccc32)ccc1OC [Ex. 161, (S)-5-(2,5-difluorophenyl)-1-(1-(6-ethoxy-5-methoxypyridin-2-yl)-2-(methylsulfonyl)ethyl)-3-methyl-1H-benzo[d]imidazol-2(3H)-one]	+	+	+
CCOc1nc([C@@H](CS(C)(=O)=O)n2c(=O)n(CC(F)(F)F)c3c(C)c(-c4ccccc4)cnc32)ccc1OC [Ex. 53, (S)-3-(1-(6-ethoxy-5-methoxypyridin-2-yl)-2-(methylsulfonyl)ethyl)-7-methyl-6-phenyl-1-(2,2,2-trifluoroethyl)-1H-imidazo[4,5-b]pyridin-2(3H)-one]	+	+	+
CCOc1nc([C@H](CS(C)(=O)=O)n2c(=O)[nH]c3c(C)c(-c4ccccc4C#N)cnc32)ccc1OC [Ex. 16, (R)-2-(3-(1-(6-ethoxy-5-methoxypyridin-2-yl)-2-(methylsulfonyl)ethyl)-7-methyl-2-oxo-2,3-dihydro-1H-imidazo[4,5-b]pyridin-6-yl)benzonitrile]	−	−	−
CCOc1nc([C@@H](CS(C)(=O)=O)n2c(=O)[nH]c3c(C)c(-c4ccc(OC)cc4F)cnc32)ccc1OC [Ex. 43, (S)-6-(2-fluoro-4-methoxyphenyl)-3-(1-(6-ethoxy-5-methoxypyridin-2-yl)-2-(methylsulfonyl)ethyl)-7-methyl-1H-imidazo[4,5-b]pyridin-2(3H)-one]	+	+	+
CCOc1nc([C@@H](CS(C)(=O)=O)n2c(=O)[nH]c3c(Cc4ccccc4F)cccc32)ccc1OC [Ex. 207, (S)-1-(1-(6-ethoxy-5-methoxypyridin-2-yl)-2-(methylsulfonyl)ethyl)-4-(2-fluorobenzyl)-1H-benzo[d]imidazol-2(3H)-one]	+	+	+
CCOc1nc([C@H](CS(C)(=O)=O)n2c(=O)n(CC)c3c(C)c(-c4ccccc4)cnc32)ccc1OC [Ex. 47, (R)-3-(1-(6-ethoxy-5-methoxypyridin-2-yl)-2-(methylsulfonyl)ethyl)-1-ethyl-7-methyl-6-phenyl-1H-imidazo[4,5-b]pyridin-2(3H)-one]	−	−	−
CCOc1nc([C@H](CS(C)(=O)=O)n2c(=O)[nH]c3cc(-c4ccccc4OC)ccc32)ccc1OC [Ex. 145, (R)-1-(1-(6-ethoxy-5-methoxypyridin-2-yl)-2-(methylsulfonyl)ethyl)-5-(2-methoxyphenyl)-1H-benzo[d]imidazol-2(3H)-one]	−	−	−
CCOc1nc([C@@H](CS(C)(=O)=O)n2c(=O)[nH]c3cc(-c4ccc(F)cc4)ccc32)ccc1OC [Ex. 135, (S)-1-(1-(6-ethoxy-5-methoxypyridin-2-yl)-2-(methylsulfonyl)ethyl)-5-(4-fluorophenyl)-1H-benzo[d]imidazol-2(3H)-one]	+	+	+
CCOc1nc([C@@H](CS(C)(=O)=O)n2c(=O)n(C3CC3)c3cc(C(F)(F)F)ccc32)ccc1OC [Ex. 211, (S)-3-cyclopropyl-1-(1-(6-ethoxy-5-methoxypyridin-2-yl)-2-(methylsulfonyl)ethyl)-5-(trifluoromethyl)-1H-benzo[d]imidazol-2(3H)-one]	+	+	+
CCOc1nc([C@@H](CS(C)(=O)=O)n2c(=O)n(C)c3cc(-c4ccc(F)cc4)ccc32)ccc1OC [Ex. 137, (S)-1-(1-(6-ethoxy-5-methoxypyridin-2-yl)-2-(methylsulfonyl)ethyl)-3-methyl-5-(4-fluorophenyl)-1H-benzo[d]imidazol-2(3H) one]	+	+	+
CCOc1nc([C@@H](CS(C)(=O)=O)n2c(=O)[nH]c3c(-c4ccccc4F)cccc32)ccc1OC [Ex. 205, (S)-1-(1-(6-ethoxy-5-methoxypyridin-2-yl)-2-(methylsulfonyl)ethyl)-4-(2-fluorophenyl)-1H-benzo[d]imidazol-2(3H)-one]	+	+	+
CCOc1nc([C@@H](CS(C)(=O)=O)n2c(=O)n(CC(F)F)c3c(C)c(-c4ccc(F)cc4)cnc32)ccc1OC [Ex. 58, (S)-1-(2,2-difluoroethyl)-3-(1-(6-ethoxy-5-methoxypyridin-2-yl)-2-(methylsulfonyl)ethyl)-6-(4-fluorophenyl)-7-methyl-1H-imidazo[4,5-b]pyridin-2(3H)-one]	+	+	+
CCOc1nc([C@@H](CS(C)(=O)=O)n2c(=O)n(C)c3cc(-c4ccccc4CC)cnc32)ccc1OC [Ex. 82, (S)-3-(1-(6-ethoxy-5-methoxypyridin-2-yl)-2-(methylsulfonyl)ethyl)-6-(2-ethylphenyl)-1-methyl-1H-imidazo[4,5-b]pyridin-2(3H)-one]	+	+	+
CCOc1nc([C@@H](CS(C)(=O)=O)n2c(=O)[nH]c3cc(-c4ccccc4C(F)(F)F)cnc32)ccc1OC [Ex. 85, (S)-3-(1-(6-ethoxy-5-methoxypyridin-2-yl)-2-(methylsulfonyl)ethyl)-6-(2-(trifluoromethyl)phenyl)-1H-imidazo[4,5-b]pyridin-2(3H)-one]	+	+	+
CCOc1nc([C@@H](CS(C)(=O)=O)n2c(=O)[nH]c3cc(-c4ccccc4OC)ccc32)ccc1OC [Ex. 143, (S)-1-(1-(6-ethoxy-5-methoxypyridin-2-yl)-2-(methylsulfonyl)ethyl)-5-(2-methoxyphenyl)-1H-benzo[d]imidazol-2(3H)-one]	+	+	+
CCOc1nc([C@@H](CS(C)(=O)=O)n2c(=O)[nH]c3cc(-c4c(F)cccc4F)ccc32)ccc1OC [Ex. 154, (S)-5-(2,6-difluorophenyl)-1-(1-(6-ethoxy-5-methoxypyridin-2-yl)-2-(methylsulfonyl)ethyl)-1H-benzo[d]imidazol-2(3H)-one]	+	+	+
CCOc1nc([C@@H](CS(C)(=O)=O)n2c(=O)n(C)c3cc(-c4c(F)cccc4F)ccc32)ccc1OC [Ex. 155, (S)-5-(2,6-difluorophenyl)-1-(1-(6-ethoxy-5-methoxypyridin-2-yl)-2-(methylsulfonyl)ethyl)-3-methyl-1H-benzo[d]imidazol-2(3H)-one]	+	+	+
CCOc1nc([C@@H](CS(C)(=O)=O)n2c(=O)n(C)c3cc(-c4ccccc4OC)ccc32)ccc1OC [Ex. 144, (S)-1-(1-(6-ethoxy-5-methoxypyridin-2-yl)-2-(methylsulfonyl)ethyl)-5-(2-methoxyphenyl)-3-methyl-1H-benzo[d]imidazol-2(3H)-one]	+	+	+
CCOc1nc([C@@H](CS(C)(=O)=O)n2c(=O)[nH]c3cc(-c4ccc(C)cc4C)cnc32)ccc1OC [Ex. 99, (S)-6-(2,4-dimethylphenyl)-3-(1-(6-ethoxy-5-methoxypyridin-2-yl)-2-(methylsulfonyl)ethyl)-1H-imidazo[4,5-b]pyridin-2(3H)-one]	+	+	+
CCOc1nc([C@@H](CS(C)(=O)=O)n2c(=O)n(C)c3cc(-c4cc(F)ccc4OC)cnc32)ccc1OC [Ex. 118, (S)-6-(5-fluoro-2-methoxyphenyl)-3-(1-(6-ethoxy-5-methoxypyridin-2-yl)-2-(methylsulfonyl)ethyl)-1-methyl-1H-imidazo[4,5-b]pyridin-2(3H)-one]	+	+	+
CCOc1nc([C@@H](CS(C)(=O)=O)n2c(=O)n(C)c3cc(-c4ccccc4OC)cnc32)ccc1OC [Ex. 84, (S)-3-(1-(6-ethoxy-5-methoxypyridin-2-yl)-2-(methylsulfonyl)ethyl)-6-(2-methoxyphenyl)-1-methyl-1H-imidazo[4,5-b]pyridin-2(3H)-one]	+	+	+
CCOc1nc([C@@H](CS(C)(=O)=O)n2c(=O)[nH]c3cc(-c4ccccc4F)ccc32)ccc1OC [Ex. 132, (S)-1-(1-(6-ethoxy-5-methoxypyridin-2-yl)-2-(methylsulfonyl)ethyl)-5-(2-fluorophenyl)-1H-benzo[d]imidazol-2(3H)-one]	+	+	+
CCOc1nc([C@@H](CS(C)(=O)=O)n2c(=O)n(C)c3cc(-c4ccccc4)ccc32)ccc1OC [Ex. 131, (S)-1-(1-(6-ethoxy-5-methoxypyridin-2-yl)-2-(methylsulfonyl)ethyl)-5-phenyl-3-methyl-1H-benzo[d]imidazol-2(3H)-one]	+	+	+
